In PubChem BioAssay (NCI):
Several values for one entry are separate records, joined by “and”; a condition that tells them apart may be missing. Equal values may be shown once.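 Compound exposure: 48 hours, 5 concentrations, 96-well plates. Here, GI50 denotes the concentration required for 50% inhibition of growth. TGI is the concentration that stops growth completely.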

Columns and labels:
Test in all cases: NCI-60 cell line screen, 48 h
NCI-H23 lung = tested on: NCI-H23 lung
EKVX NSCLC = tested on: EKVX NSCLC
HCT-116 colon = tested on: HCT-116 colon
SNB-19 CNS = tested on: SNB-19 CNS
IGROV1 ovarian = tested on: IGROV1 ovarian
SF-268 CNS = tested on: SF-268 CNS
A498 renal = tested on: A498 renal
NCI/ADR-RES ovarian = tested on: NCI/ADR-RES ovarian

Row | SMILES | GI50 (NCI-H23 lung) [µM] | TGI (NCI-H23 lung) [µM] | GI50 (EKVX NSCLC) | TGI (EKVX NSCLC) [µM] | GI50 (HCT-116 colon) | TGI (HCT-116 colon) [µM] | GI50 (SNB-19 CNS) [µM] | TGI (SNB-19 CNS) [µM] | GI50 (IGROV1 ovarian) [µM] | TGI (IGROV1 ovarian) | GI50 (SF-268 CNS) [µM] | TGI (SF-268 CNS) | GI50 (A498 renal) | TGI (A498 renal) | GI50 (NCI/ADR-RES ovarian) [µM] | TGI (NCI/ADR-RES ovarian) [µM]
1 | O=C1C(=O)c2c(nc3ccc(C(F)(F)F)cn23)-c2ccccc21 | 0.175 | 0.477 | 0.178 µM | 0.396 | 0.176 µM | 0.354 | 0.303 | 0.763 | 0.191 | 0.47 µM | 0.224 | 0.609 µM | 1.82 µM | 3.25 µM | 0.23 | 0.581
2 | COC(=O)C(C(=O)C(=O)Nc1c(C)cccc1C(C)(C)C)c1nc2ccc(Cl)cc2[nH]c1=O (configuration not stated) | – | > 100 | – | > 100 | – | > 100 | – | > 100 | – | > 100 µM | – | > 100 µM | – | > 100 µM | – | > 100
3 | COc1cc(N2C(=O)[C@H](Cl)C2c2ccc(SC)cc2)cc(OC)c1OC (some centres not stated) | 0.121 | > 100 | 0.209 µM | > 100 | 0.035 µM | 1 | 0.0965 | > 100 | 0.0672 | > 100 µM | 0.0841 | > 100 µM | – | – | 0.0356 | > 100
4 | COc1cc(/C=N/NC(=O)c2cnn3c2NC(c2ccccc2)C3)ccc1OC1CCCC1 (configuration not stated) | 1.44 | 8.85 | 1.51 µM | 14 | 0.518 µM | 3.46 | 0.923 | 10.9 | 0.723 | 9.4 µM | 1.88 | 13.1 µM | 0.407 µM | 2.28 µM | 0.884 | 4.35
5 | COc1ccc(-n2c(=S)sc3c(Cl)nc(C)nc32)c(OC)c1 | 2.44 | 5.87 | 4.55 µM | 17 | 1.83 µM | 3.71 | 2.4 | 5.42 | 1.93 | 3.99 µM | 2.17 | 5.21 µM | 11.5 µM | 23.8 µM | 13.2 | 72.9
6 | CCOC(=O)Nc1ccc2nc(-c3cscn3)[nH]c2c1 | 8.47 | > 100 | – | – | 3.87 µM | > 100 | 5.73 | > 100 | 6.3 | > 100 µM | 18 | > 100 µM | 3.5 µM | 21 µM | 2.71 | > 74.9
7 | Clc1ccccc1C(Nc1cnccn1)Nc1cnccn1 | – | > 100 | – | > 100 | – | > 100 | – | > 100 | – | > 100 µM | – | > 100 µM | – | > 100 µM | – | > 100
8 | CN1CCN(C2=NC(=O)/C(=C\c3ccc(N(C)C)cc3)S2)CC1 | > 100 | > 100 | > 100 µM | > 100 | > 100 µM | > 100 | > 100 | > 100 | 72.5 | > 100 µM | > 100 | > 100 µM | > 100 µM | > 100 µM | > 100 | > 100
9 | CN(C)CCC(=O)Nc1ccc(-n2cc(-c3cccc(NC(=S)Nc4cccc(-c5cn(-c6ccc(NC(=O)CCN(C)C)cc6)nn5)c4)c3)nn2)cc1 | 57.2 | > 100 | 37.2 µM | > 100 | 12.7 µM | 40.4 | 49.5 | > 100 | – | – | 24.5 | 75.6 µM | > 100 µM | > 100 µM | > 100 | > 100
10 | CCOc1c(Br)cc(Br)cc1C=C(C#N)C#N | – | > 10 | – | > 10 | – | > 10 | – | > 10 | – | > 10 µM | – | > 10 µM | – | 8.8 µM | – | 4.98
11 | CC1CCC2C(C)C(=O)OC2C2(C)C(=O)C=CC12 (configuration not stated) | – | > 10 | – | > 10 | – | > 10 | – | > 10 | – | > 10 µM | – | > 10 µM | – | – | – | > 10
12 | OCC(O)C(O)C(O)C(/C=N\Nc1ncnc2c(Br)cc(Br)cc12)=N/Nc1ncnc2c(Br)cc(Br)cc12 (configuration not stated) | – | – | 1.88 µM and 4.49 µM | – | 19.1 µM and 3.44 µM | > 100 | – | – | – | 10.1 µM and > 100 µM | – | 11.9 µM and > 100 µM | 22.5 µM and > 100 µM | 38.8 µM and > 100 µM | – | –
13 | O=C1NC(=NCCc2ccc(Cl)cc2)S/C1=C\c1ccc2ncccc2c1 | 23.3 | > 25 | – | – | 9.14 µM | > 25 | > 25 | > 25 | 17.6 | > 25 µM | 11.7 | > 25 µM | 13.8 µM | > 25 µM | 19.5 | > 25
14 | Cc1cccc(N2C(=O)/C(=C/C(Cl)=C/c3ccc([N+](=O)[O-])cc3)SC2=S)c1C | 1.84 | 4.38 | 2.73 µM | > 100 | 1.33 µM | 3.08 | 2.9 | > 100 | – | – | – | – | – | – | 2.97 | > 100
15 | CCCCCCCC/C=C/CCCCCCCC1=NC(C)(C)CN1C(C)(C)CO | 1.77 | 3.46 | 1.53 µM | 4.36 | 1.52 µM | 2.9 | 2.39 | 6.55 | – | – | 2.01 | 3.84 µM | 11.5 µM | 25.7 µM | 2.1 | 4.81
16 | OCc1ccc(N(Cc2ccc(F)cc2)Cc2ccc(F)cc2)cc1Cl | 7.95 | 24.3 | – | – | 2.87 µM | 10.8 | 12.9 | 31.6 | 2.08 | 8.07 µM | 12.4 | 26.9 µM | 0.18 µM | 0.989 µM | 12.3 | 30.4
17 | Cn1c(COC(=O)NCCc2ccccn2)nc2c(N3CCOCC3)nc(Cl)nc21 | 2 | 4.7 | 1.7 µM | 3.7 | 0.847 µM | 2.25 | 3.97 | 16.1 | 1.31 | 2.84 µM | 1.52 | 3.11 µM | 1.53 µM | 6.36 µM | 2.62 | 8.49
